# What was measured:
# [1] = cited from earlier work
# [2] = Solubility of phytosphingosine in solvents; format: physicochemical; conditions: solvent: mixture of water, lactic acid and a willow bark extract
structure (smiles),measurement,setting,value
"CCCCCCCCCCCCCC[C@@H](O)[C@@H](O)[C@@H](N)CO [Phytosphingosine, phytosphingosine]",Solubility in isocetyl alcohol,[1]; isocetyl alcohol,1 wt %
same,Solubility in water,[1]; water,not soluble in water at all
same,Amount solubilized to give a completely clear solution,[2],5-10 weight %
